IC50 data for 85 compounds are collected here from PubChem BioAssay AID1645868 (Buhrlage Lab, Dana-Farber Cancer Institute and Novartis …, 2021).

Active and inactive are the calls of the source.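 The calls were made as follows: active = maximal percent inhibition of the deubiquitinase OTUD3 of at least 30% across the tested doses; inactive = the rest.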

This assay deals with OTU domain-containing protein 3 (Homo sapiens) (UniProt Q5T2D3). The assay can be described thus: Validation of screening hits, potency titration, in vitro enzymatic, OTU domain-containing protein 3 DUB inhibitors (AID 1645868). To be noted: purified OTUD3, ubiquitin-rhodamine cleavage fluorescence, 2 h.
Chain of OTU domain-containing protein 3 (Homo sapiens) (Q5T2D3 whole entry, looked up, the tested form may be a part): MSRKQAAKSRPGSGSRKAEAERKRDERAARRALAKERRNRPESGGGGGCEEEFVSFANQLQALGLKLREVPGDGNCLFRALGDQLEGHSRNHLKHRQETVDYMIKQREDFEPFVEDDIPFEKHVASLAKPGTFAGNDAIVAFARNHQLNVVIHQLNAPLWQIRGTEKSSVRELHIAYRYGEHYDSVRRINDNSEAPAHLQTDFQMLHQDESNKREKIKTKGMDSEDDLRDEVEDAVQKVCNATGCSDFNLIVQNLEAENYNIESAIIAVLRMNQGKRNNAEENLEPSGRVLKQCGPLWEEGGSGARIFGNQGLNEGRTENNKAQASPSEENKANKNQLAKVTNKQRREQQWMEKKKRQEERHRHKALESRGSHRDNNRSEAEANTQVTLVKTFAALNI
By IC50 is commonly meant the midpoint of a concentration-inhibition curve. Regarding `O=C1c2ccccc2NC2(C(=O)Nc3ccc(Br)cc32)N1c1ccccc1` (stereo not given), the IC50 is > 50 µM (inactive).

`CN(C)S(=O)(=O)c1ccc(C(=O)Nc2c(C#N)oc3ccccc23)cc1`: the IC50 is > 50 µM (inactive). For the compound `CC(=O)NCc1nc(-c2ccc3c(c2)nc(C)c(=O)n3C2CCCC2)no1`, the IC50 was > 50 µM (inactive). Take `Cc1ccc2c(c1)-c1c(c(C(=O)N3CCN(c4ccccc4)CC3)nn1C)CS2`: the IC50 was > 50 µM (inactive). Regarding `CC(C)CCN1C(=O)C2C(C(=O)Nc3ccc(Oc4ccccc4)cc3)C3C=CC2(O3)C1C(=O)NC1CCCCC1` (stereo not given), the IC50 is 30.7 µM.

`Cc1nc(-c2ccc3c(c2)nnn3CCN2CCOCC2)no1`: the IC50 was > 50 µM (inactive). Consider `CCOc1cc(N2CCOCC2)c(OCC)cc1NC(=O)c1cc(-c2ccncc2)nc2ccccc12`, for which the IC50 is > 50 µM (inactive).

As for `COc1cc(O)c2c(O)c3c(cc2c1)CC(C)OC3=O` (stereo not given), the IC50 was > 50 µM (inactive). On to `COc1ccc(NC(=O)C2CCN(c3cncnc3N(C)C)CC2)cc1OC`, for which the IC50 was > 50 µM (inactive).

For `COc1ccc(CNC(=O)CCc2nc3sc4c(c3c(=O)[nH]2)CCCCC4)cc1`, the IC50 was > 50 µM (inactive). For the compound `Cc1ccc(S(=O)(=O)Nc2ccccc2SCCS(=O)(=O)c2ccc(Cl)cc2)cc1`, the IC50 is > 50 µM (inactive).

As to `COc1ccc(C(=O)N2CCCC3(C2)Nc2cccnc2NC3=NC2CCCC2)cn1` (stereo not given), the IC50 was > 50 µM (inactive). In the case of `CCOc1ccc2[nH]c3c(=O)n(CCc4ccc(OC)cc4)cnc3c2c1`, the IC50 was 28.6 µM. `Cc1ccc(C)c(Cn2nnc3c(=O)[nH]c(C4CCN(S(=O)(=O)c5ccc(S(=O)(=O)NC6CC6)cc5)CC4)nc32)c1`: the IC50 was 35.1 µM. In the case of `O=C(Nc1cc(Cl)cc(Cl)c1)c1csnn1`, the 50% inhibitory concentration (IC50) was 32.8 µM. The same measure for `COc1ccc(-c2nonc2NC(=O)C(c2ccccc2)c2ccccc2)cc1OC`: > 50 µM (inactive); for `O=C(NCc1ccco1)c1ccc2c(c1)N(Cc1cccc(F)c1)C(=O)c1ccccc1S2`: > 50 µM (inactive).

As to `COc1ccc(-c2cc(-c3ccccc3)nc(SCC(N)=O)c2C#N)cc1OC`, the IC50 is 10.5 µM. With `CN(C)c1cc(-n2cnc(C(=O)NCc3ccccc3Cl)c2)ncn1`, the IC50 was 30.4 µM. The same measure for `CCOc1ccc(NC(=O)Cn2c(=O)n(CCC(=O)NCc3ccccc3OC)c(=O)c3ccccc32)cc1`: 15.4 µM; for `COc1c(Cl)ccc2c(=O)c3c(O)c4c5c(c3oc12)OCO[C@H]5[C@@H](OC)c1cc2c(c(O)c1-4)C(=O)N(C)[C@H](OC)[C@@H]2O`: > 50 µM (inactive); for `Cc1cc(Cl)ccc1NC(=O)c1cc(-c2cccnc2)n[nH]1`: > 50 µM (inactive).

With `O=C(COC(=O)Cn1cnc2ccccc21)Nc1ccc2c(c1)OCCO2`, the IC50 was > 50 µM (inactive). As for `Cn1nc(-c2nc(-c3ccccc3)no2)c2c1CCN(C(=O)C1CCCC1)C2`, the IC50 was > 50 µM (inactive).

Turning to `Cn1c(CN2CCCCCC2)nc2cc(NC(=O)c3ccccc3)ccc21`, the IC50 is > 50 µM (inactive). For the compound `O=C(COc1ccc(S(=O)(=O)N2CCOCC2)cc1)N1CCC(Cc2ccccc2)CC1`, the IC50 was > 50 µM (inactive). As for `Cc1sc(NC(=O)CN2CCc3ccccc3C2)nc1-c1ccc2c(c1)CCN2C(=O)C1CCCCC1`, the IC50 was > 50 µM (inactive). The same measure for `COc1ccc(C2SCC(=O)Nc3c2c(=O)[nH]n3C2CCCCC2)cc1` (stereo not given): 23.3 µM. As for `Cc1noc(C)c1S(=O)(=O)Nc1ccc(C(=O)Nc2ccc3c(c2)OCCO3)cc1`, the IC50 is > 50 µM (inactive). Consider `COc1ccccc1-c1nc(Cn2nnc(C(=O)Nc3cc(C)cc(C)c3)c2N)c(C)o1`, for which the IC50 is > 50 µM (inactive). For the compound `Cc1ccc(C)c(-c2cc3c(=O)n(Cc4noc(CN5CCCCC5)n4)ccn3n2)c1`, the IC50 was > 50 µM (inactive). As to `COc1ccc(N(CC(=O)NC2CCCCC2)C(=O)c2ccc(-c3ccccc3)[nH]2)cc1OC`, the IC50 is 11.8 µM.

`Cc1ccc(Cc2nc(-c3ccc(=O)[nH]c3)no2)cc1`: the IC50 is > 50 µM (inactive). For `COc1ccc(O)c(C(=O)OCc2cc(=O)oc3ccc4ccccc4c23)c1`, the IC50 was > 50 µM (inactive). As for `O=C(CC1C(=O)Nc2nc(-c3ccccc3)nn21)Nc1cccc2ccccc12` (stereo not given), the IC50 is 25 µM. As for `COc1ccccc1NC(=O)Cn1cc(C(=O)c2ccc(C)cc2)c(=O)c2ccccc21`, the IC50 was 39.5 µM. In the case of `Clc1ccc(C[n+]2cc(-c3ccc(Cl)cc3)n3c2CCC3)cc1`, the IC50 was > 50 µM (inactive).

As to `CC1CCc2sc(NC(=O)c3ccccc3Oc3ccccc3)c(C(N)=O)c2C1` (stereo not given), the IC50 is 31.6 µM. Then `Oc1ccc(-c2nc3cnccn3c2NCCc2ccccc2)c(O)c1`, with > 50 µM (inactive).

`CC(=O)[C@H]1c2c(c(O)c3c(O)cccc3c2-c2c3c(c(O)c4c(O)cccc24)C(=O)C[C@](C)(O)[C@H]3C(C)=O)C(=O)C[C@]1(C)O`: the IC50 is > 50 µM (inactive).

Take `O=C(Nc1cccc(Cl)c1)N1CCC(c2cc(-c3ccco3)n[nH]2)CC1`: the IC50 was > 50 µM (inactive). For `COc1ccc(NC(=O)COc2cc(CSc3ccccc3)ncc2OC)cc1`, the IC50 is > 50 µM (inactive). Then `COc1ccccc1Nc1ncc(C(=O)NCCc2ccc(Cl)cc2)c2ccccc12`, with 21.2 µM; and `CC(C)Cc1cc(-c2nnc3sc(-c4ccco4)nn23)n[nH]1`, with > 50 µM (inactive). For the compound `CCCc1nc2sc3c(N(CC)CC)ncnc3c2c2c1CCC2`, the IC50 is > 50 µM (inactive).

For `CNC(=O)c1cc2c(=O)n3cccc(C)c3nc2n1Cc1ccccc1`, the IC50 was > 50 µM (inactive). As for `Fc1ccc(CN2CCc3nc4cccnc4cc3C2)cc1`, the IC50 is > 50 µM (inactive). With `Cc1ccc2[nH]c(=O)c(CN(CC3COCCO3)S(=O)(=O)c3ccc(F)cc3)cc2c1` (stereo not given), the IC50 is 18.9 µM. The same measure for `CCc1ccc(C2c3c(oc4ccccc4c3=O)C(=O)N2c2nncs2)cc1` (stereo not given): > 50 µM (inactive); for `CC1=C[C@H]2N(c3ccc(C)cc31)[C@H](C(=O)c1cccs1)[C@@H](C(=O)c1ccc(F)cc1)[C@]21C(=O)Nc2ccccc21`: > 50 µM (inactive); for `COc1cccc(CNC(=O)c2ccc3c(c2)NC(=O)C2CCCN32)c1OC` (stereo not given): > 50 µM (inactive).

For the compound `O=C(NCCc1ccco1)c1ccc(N2CCOc3ccccc32)s1`, the IC50 is 28.4 µM. As to `CC(CCc1ccccc1)NC(=O)Cn1c(=O)c2cccn2c2ccccc21` (stereo not given), the IC50 was 33.5 µM. The same measure for `COc1cccc(NC(=O)CSc2nnc(-c3cc4cccc(OC)c4o3)n2C)c1`: 35.9 µM; for `Cc1ccc(NC(=O)c2c3c(nc4ccccc24)CCCCC3)c(C)c1`: > 50 µM (inactive); for `CC1CCN(c2cc(-n3cnc(C(=O)N4CCCC(C)C4)c3)ncn2)CC1` (stereo not given): > 50 µM (inactive).

`CCOc1ccc(NC(=O)Cn2cc(C(=O)c3ccc(Cl)cc3)c(=O)c3cc(OC)ccc32)cc1`: the concentration for half-maximal inhibition (IC50) is 4.68 µM. As to `Cc1nc(C(=O)N[C@@H](C)C(=O)NCc2ccc3c(c2)OCO3)cc2c1[nH]c1ccccc12`, the concentration for half-maximal inhibition (IC50) was 37.8 µM.

Consider `COc1ccc2nc(-c3ccc(NC(=O)c4cccc(OC)c4OC)cc3)cn2n1`, for which the IC50 was > 50 µM (inactive).

On to `CN(C)c1ccc(CCN2CCc3nc4cccnc4cc3C2)cc1`, for which the IC50 is > 50 µM (inactive).

For `CCc1ccc(NC(=O)Cc2nnc3cc(-c4nc(C)no4)ccn23)cc1`, the half-inhibitory concentration (IC50) is 29.2 µM. Regarding `O=C(COC(=O)c1ccc(CN2CCCC2=O)cc1)c1ccc2c(c1)OCCO2`, the IC50 is > 50 µM (inactive). Turning to `Fc1cc(F)c2[nH]cc(-c3nnnn3-c3ccc4ccccc4c3)c2c1`, the IC50 is 32.6 µM. With `COc1cc(Cl)ccc1C(=O)Nc1cccc(-n2cnnn2)c1C`, the IC50 is 16.3 µM. Turning to `CCn1c(Cn2cccn2)nc2cc(NC(=O)c3ccc(F)cc3)ccc21`, the IC50 is > 50 µM (inactive). For the compound `NS(=O)(=O)c1cc(C(=O)OCC(=O)NC2CCCc3ccccc32)ccc1Cl` (stereo not given), the IC50 is 49 µM. Consider `CC1(O)CC(=O)c2c(cc3cc(O)cc(O)c3c2O)C1` (stereo not given), for which the IC50 was 0.188 µM. Take `COCCCNC(=O)Cn1c(=O)n(Cc2ccc(C(=O)NCc3ccccc3OC)cc2)c(=O)c2ccccc21`: the IC50 was > 50 µM (inactive). As to `COc1cccc2c1NC(=O)C21CCN(C(=O)Nc2cccc(C)c2)CC1`, the IC50 is 13.8 µM. The same measure for `CCOc1ccc2cc3c(nc2c1)OC(=O)N(Cc1ccc(C)o1)C3`: > 50 µM (inactive); for `Cc1cccc(N2CCN(C(=O)c3nnn(-c4ccc(F)cc4)n3)CC2)c1`: > 50 µM (inactive); for `Cn1c(CCN2CCCC2)nc2cc(NC(=O)c3ccccc3)ccc21`: > 50 µM (inactive). In the case of `c1coc(CNc2nc3ccccc3n3nnnc23)c1`, the IC50 was > 50 µM (inactive). Then `CC(C)OC(=O)c1cc2c(ccn2C)n1CC(=O)N1CCN(C(=O)c2ccco2)CC1`, with > 50 µM (inactive); and `O=C(Nc1ccc(Br)cn1)c1nc2ccccc2nc1N1CCCCC1`, with > 50 µM (inactive); and `COCCNC(=O)c1cc(-c2cn(-c3ccccn3)c(C)n2)n2ccccc12`, with > 50 µM (inactive). Consider `CCC/C=C\C#CC/C=C\CCCCCCCC(=O)O`, for which the IC50 was 1.37 µM. Take `O=C(CCCn1c(=O)[nH]c2cc(Cl)ccc2c1=O)N1CCc2ccccc2C1`: the IC50 was 29 µM. The same measure for `CC1=C(C(=O)Nc2ccccc2C)C(c2ccc(OCc3ccccc3F)cc2)n2ncnc2N1` (stereo not given): 24 µM.

For `CC1=C2C(=NCCN1)C(=O)N(c1ccccc1)C2c1cccnc1` (stereo not given), the IC50 was > 50 µM (inactive). On to `O=C(COc1ccc(Cl)cc1Cl)Nc1ccccc1-c1nc2ccccc2[nH]1`, for which the IC50 was 6.12 µM. On to `Cc1ccc(N=Cc2sc(O)c3ccccc23)c(C)c1`, for which the IC50 was > 50 µM (inactive). Regarding `Cc1ccc(CNC(=O)CCCn2c(=O)c3sccc3n(CC(=O)Nc3cc(Cl)ccc3C)c2=O)cc1`, the IC50 is 9.57 µM. Take `CC(C)Oc1ccc(C(=O)Nc2cccc(S(=O)(=O)N3CCCC3)c2)cc1`: the IC50 was > 50 µM (inactive). Regarding `Cn1ccnc1CN1C[C@H]2CCN(c3ncccn3)C[C@H]2C1`, the IC50 was > 50 µM (inactive).
